Literature values, collected in US20050089572A1, “Controlled release drug delivery system of pravastatin” (priority 2002, published 2005).

Settings: pH 3 or less as found in the stomach; degrades to lactone and 3-α-hydroxy-isopravastatin

## CC[C@H](C)C(=O)O[C@H]1C[C@H](O)C=C2C=C[C@H](C)[C@H](CC[C@@H](O)C[C@@H](O)CC(=O)O)[C@H]21 [Pravastatin sodium, (+)-(3R, 5R)-3,5-dihydroxy-7-[(1S,2S,6S,8S,8aR)-6-hydroxy-2-methyl-8-[(S)-2-methylbutyryloxy]-1,2,6,7,8,8a-hexahydro-1-naphthyl] heptanoate]
  stability at low pH: very unstable
